Molecular target: human TMEM16A (TMEM16Aabc variant) (Homo sapiens, UniProt Q5XXA6, DEL476-501, form not given)
Experiment: Automated whole-cell patch clamp (Qpatch) TMEM16A potentiator assay in FRT cells stably expressing human TMEM16A
Type: cell-based
Details: for % Potentiation @ 3.33 μM Avg: 3.33 μM solution of test compound, percentage increase of baseline TMEM16A current; for EC50: calculated EC50, Qpatch TMEM16A current at +70 mV
Procedure, shortened: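 Potentiation was read as the rise in peak +70 mV current over baseline (%), from cumulative 5-min additions of compound. Recordings used whole-cell automated patch of FRT cells stably carrying human TMEM16Aabc, with pipette Ca2+ buffered to give ~20% maximal current. EC50 and efficacy came from concentration-response fits.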

Sequence of human TMEM16A (TMEM16Aabc variant) (Q5XXA6 with tags, fused parts or gaps DEL476-501): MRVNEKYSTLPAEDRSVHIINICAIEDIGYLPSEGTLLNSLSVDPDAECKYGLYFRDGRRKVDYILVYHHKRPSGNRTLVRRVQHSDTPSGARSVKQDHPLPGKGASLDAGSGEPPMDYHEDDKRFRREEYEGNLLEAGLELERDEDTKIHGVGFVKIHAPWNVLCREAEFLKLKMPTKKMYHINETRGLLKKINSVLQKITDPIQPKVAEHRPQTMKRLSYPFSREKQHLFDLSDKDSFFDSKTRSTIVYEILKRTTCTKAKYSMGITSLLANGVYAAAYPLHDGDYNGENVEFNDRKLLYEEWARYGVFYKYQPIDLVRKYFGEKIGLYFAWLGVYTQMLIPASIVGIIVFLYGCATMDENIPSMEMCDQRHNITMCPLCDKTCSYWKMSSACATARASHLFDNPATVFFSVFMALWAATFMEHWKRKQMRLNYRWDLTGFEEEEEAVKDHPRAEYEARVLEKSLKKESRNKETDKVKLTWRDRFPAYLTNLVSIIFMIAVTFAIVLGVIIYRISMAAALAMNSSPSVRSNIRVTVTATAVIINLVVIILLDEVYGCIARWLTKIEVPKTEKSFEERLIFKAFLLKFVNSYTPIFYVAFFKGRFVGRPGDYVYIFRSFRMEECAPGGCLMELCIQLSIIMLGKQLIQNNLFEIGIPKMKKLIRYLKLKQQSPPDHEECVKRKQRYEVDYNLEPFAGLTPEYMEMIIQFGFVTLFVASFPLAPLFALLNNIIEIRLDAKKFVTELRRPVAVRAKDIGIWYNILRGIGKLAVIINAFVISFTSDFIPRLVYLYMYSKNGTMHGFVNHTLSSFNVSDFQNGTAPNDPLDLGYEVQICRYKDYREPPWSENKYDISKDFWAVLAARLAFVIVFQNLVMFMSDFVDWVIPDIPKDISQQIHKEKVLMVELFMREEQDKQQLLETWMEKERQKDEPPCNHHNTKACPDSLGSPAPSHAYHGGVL

Row | SMILES | % Potentiation @ 3.33 μM Avg [%] | EC50 [nM]
1 | CC(C)(C)NC(=O)c1cc(NC(=O)Cc2ccc(C(F)(F)F)cc2O)ccn1 [Example 3.7b, N-tert-Butyl-4-[[2-[2-hydroxy-4-(trifluoromethyl)phenyl]acetyl]amino]pyridine-2-carboxamide] | 160 | 180
2 | N#CC1(NC(=O)c2cccc(NC(=O)Cc3cc(Cl)ccc3O)c2)CCOC1 (stereo not shown) [Example 71, 3-[[2-(5-Chloro-2-hydroxy-phenyl)acetyl]amino]-N-(3-cyanotetrahydrofuran-3-yl)benzamide] | 162 | –
3 | O=C(Cc1cc(F)ccc1O)Nc1ccnc(C(=O)NC2(CO)CCC2)c1 [Example 81.5, 4-[[2-(5-Fluoro-2-hydroxy-phenyl)acetyl]amino]-N-[1-(hydroxymethyl)cyclobutyl] pyridine-2-carboxamide] | 74 | –
4 | CC(C)(C)NC(=O)c1cc(NC(=O)Cc2c[nH]c3ccccc23)ccn1 [Example 5.6, N-tert-Butyl-4-[[2-(1H-indol-3-yl)acetyl]amino]pyridine-2-carboxamide] | 101 | 150
5 | CC(C)(C)NC(=O)c1cc(NC(=O)Cc2ccc3c(c2)OCCO3)ccn1 [Example 5.31] | 145 | –
6 | O=C(Cc1cc(Cl)ccc1O)Nc1ccnc(C(=O)NC23CC(C2)C3)c1 [Example 7.15, N-(3-Bicyclo[1.1.1]pentanyl)-4-[[2-(5-chloro-2-hydroxy-phenyl)acetyl]amino]pyridine-2-carboxamide] | 230 | 50
7 | CC1(NC(=O)c2cc(NC(=O)Cc3ccccc3Cl)ccn2)CC1 [Example 30.8, 4-[[2-(2-Chlorophenyl)acetyl]amino]-N-(1-methylcyclopropyl)pyridine-2-carboxamide] | 121 | 700
8 | CC(C)(C)NC(=O)c1ccc(F)c(NC(=O)Cc2cc(Cl)ccc2O)c1 [Example 9, N-tert-Butyl-3-[[2-(5-chloro-2-hydroxy-phenyl)acetyl]amino]-4-fluoro-benzamide] | 149 | 230
9 | O=C(Cc1cc(Cl)ccc1O)Nc1ccnc(C(=O)NC2(CO)CCC2)c1 [Example 35.25, 4-[[2-(5-Chloro-2-hydroxy-phenyl)acetyl]amino]-N-[1-(hydroxymethyl)cyclobutyl]pyridine-2-carboxamide] | 126 | 100
10 | CC1(NC(=O)c2cc(NC(=O)Cc3cc(Cl)ccc3O)ccn2)CCCC1 [Example 38, 4-[[2-(5-Chloro-2-hydroxy-phenyl)acetyl]amino]-N-(1-methylcyclopentyl)pyridine-2-carboxamide] | 307 | 50
11 | COc1cccc(CC(=O)Nc2cccc(C(=O)NC(C)(C)C)c2)c1O [Example 2.8, N-tert-Butyl-3-[[2-(2-hydroxy-3-methoxy-phenyl)acetyl]amino] benzamide] | 74 | 4550
12 | CC(C)(C#N)NC(=O)c1cc(NC(=O)c2cnc(C3CC3)nc2)ccn1 [Example 83.8, N-[2-[(1-Cyano-1-methyl-ethyl)carbamoyl]-4-pyridyl]-2-cyclopropyl-pyrimidine-5-carboxamide] | 35 | –
13 | CC(C)(C#N)NC(=O)c1cc(NC(=O)c2ccccc2-n2cccn2)ccn1 [Example 83.15, N-(1-Cyano-1-methyl-ethyl)-4-[(2-pyrazol-1-ylbenzoyl)amino]pyridine-2-carboxamide] | -10 | –
14 | CC1(NC(=O)c2cc(NC(=O)Cc3cc(Cl)ccc3O)ccn2)CCC1 [Example 1.6, 4-[[2-(5-Chloro-2-hydroxy-phenyl)acetyl]amino]-N-(1-methylcyclobutyl)pyridine-2-carboxamide] | 255 | 60
15 | C#CC(C)(C)NC(=O)c1cc(NC(=O)Cc2cc(C(F)(F)F)ccc2O)ccn1 [Example 78.2, N-(1,1-Dimethylprop-2-ynyl)-4-[[2-[2-hydroxy-5-(trifluoromethyl)phenyl]acetyl]amino]pyridine-2-carboxamide] | 86 | 20
16 | O=C(Cc1cc(Cl)ccc1O)Nc1ccnc(C(=O)NC2(CO)CCOC2)c1 (racemic) [Example 35, 4-[[2-(5-Chloro-2-hydroxy-phenyl)acetyl]amino]-N-[3-(hydroxymethyl)tetrahydrofuran-3-yl]pyridine-2-carboxamide] | 180 | 190

Row | SMILES | % Potentiation @ 3.33 μM Avg [%] | EC50 [nM]
17 | CC(=O)NCCC(C)(C)NC(=O)c1cc(NC(=O)Cc2cc(Cl)ccc2O)ccn1 [Example 51, N-(3-Acetamido-1,1-dimethyl-propyl)-4-[[2-(5-chloro-2-hydroxy-phenyl)acetyl]amino]pyridine-2-carboxamide] | 54 | –
18 | CC(C)(C#N)NC(=O)c1cc(NC(=O)Cc2ccc(Cl)c(O)c2)ccn1 [Example 92.1, 4-[[2-(4-Chloro-3-hydroxy-phenyl)acetyl]amino]-N-(1-cyano-1-methyl-ethyl)pyridine-2-carboxamide] | 151 | 140
19 | O=C(Cc1cc(Cl)ccc1O)Nc1ccnc(C(=O)NCCCc2ccccc2)c1 [Example 35.10, 4-[[2-(5-Chloro-2-hydroxy-phenyl)acetyl]amino]-N-(3-phenylpropyl)pyridine-2-carboxamide] | 223 | 280
20 | CC(C)(C)NC(=O)c1cc(NC(=O)NCC2CCCCC2)ccn1 [Example 64.1, N-tert-Butyl-4-(cyclohexylmethylcarbamoylamino)pyridine-2-carboxamide] | 78 | –
21 | CC(C)(C)NC(=O)c1cc(NC(=O)Cc2ccc(Cl)c(O)c2)ccn1 [Example 3.14b, N-tert-Butyl-4-[[2-(4-chloro-3-hydroxy-phenyl)acetyl]amino]pyridine-2-carboxamide] | 251 | 40
22 | C[C@@H](NC(=O)Nc1ccnc(C(=O)NC(C)(C)C)c1)c1ccccc1 [Example 64.3, N-tert-Butyl-4-[[(1R)-1-phenylethyl]carbamoylamino]pyridine-2-carboxamide] | 70 | –
23 | Cc1noc(-c2ccccc2C(=O)Nc2ccnc(C(=O)NC(C)(C)C#N)c2)n1 [Example 83.23, N-(1-Cyano-1-methyl-ethyl)-4-[[2-(3-methyl-1,2,4-oxadiazol-5-yl)benzoyl]amino]pyridine-2-carboxamide] | -11 | –
24 | O=C(Cc1cc(Cl)ccc1O)Nc1ccnc(C(=O)N[C@@]2(CO)CCOC2)c1 (single isomer, unassigned) [Example 35a, 4-[[2-(5-Chloro-2-hydroxy-phenyl)acetyl]amino]-N-[(3R)-3-(hydroxymethyl)tetrahydrofuran-3-yl]pyridine-2-carboxamide or 4-[[2-(5-chloro-2-hydroxy-phenyl)acetyl]amino]-N-[(3S)-3-(hydroxymethyl)tetrahydrofuran-3-yl]pyridine-2-carboxamide] | 137 | 100
25 | CC(C)(C)NC(=O)c1cccc(NC(=O)Cc2cc(Cl)ccc2O)c1 [Example 2, N-tert-Butyl-3-[[2-(5-chloro-2-hydroxy-phenyl)acetyl]amino]benzamide] | 262 | 270
26 | CC(C)(C#N)NC(=O)c1cc(NC(=O)Cc2cc(F)ccc2O)ccn1 [Example 81, N-(1-Cyano-1-methyl-ethyl)-4-[[2-(5-fluoro-2-hydroxy-phenyl)acetyl]amino] pyridine-2-carboxamide] | 151 | 370
27 | CC(C)(C#N)NC(=O)c1cc(NC(=O)c2conc2-c2ccccc2)ccn1 [Example 83.20, N-[2-[(1-Cyano-1-methyl-ethyl)carbamoyl]-4-pyridyl]-3-phenyl-isoxazole-4-carboxamide] | 9 | –
28 | CC(C)(C)NC(=O)c1cc(NC(=O)Cc2ccc(O)c(Cl)c2)ccn1 [Example 5.21, N-tert-Butyl-4-[[2-(3-chloro-4-hydroxy-phenyl)acetyl]amino]pyridine-2-carboxamide] | 172 | 510
29 | CC(C)(C)NC(=O)c1cc(NC(=O)NCCc2ccccc2)ccn1 [Example 64.2, N-tert-Butyl-4-(2-phenylethylcarbamoylamino)pyridine-2-carboxamide] | 61 | –
30 | C#CC(C)(C)NC(=O)c1cccc(NC(=O)Cc2cc(Cl)ccc2O)c1 [Example 74, 3-[[2-(5-Chloro-2-hydroxy-phenyl)acetyl]amino]-N-(1,1-dimethylprop-2-ynyl)benzamide] | 337 | 180
31 | CC(=O)Nc1ccc(C(=O)Nc2ccnc(C(=O)NC(C)(C)C#N)c2)cc1 [Example 83.29, 4-[(4-Acetamidobenzoyl)amino]-N-(1-cyano-1-methyl-ethyl)pyridine-2-carboxamide] | -9 | –
32 | O=C(Cc1ccccc1Cl)Nc1ccnc(C(=O)NC23CCC(F)(C2)C3)c1 [Example 30.2, 4-[[2-(2-Chlorophenyl)acetyl]amino]-N-(4-fluoro-1-bicyclo[2.1.1]hexanyl)pyridine-2-carboxamide] | 221 | 180
